# Data: patent US12036225B2, “Use of ibezapolstat to promote microbiome health” (Acurx Pharmaceuticals, Inc., priority 2021, dated 2024)
# Experiments:
# C. difficile infection [1] = assay: Phase 2a open-label trial in CDI patients: clinical cure and sustained clinical cure; type: in vivo, human; conditions: 10 CDI patients
# Procedure: Phase 2a of this trial was an open-label cohort of 10 subjects from study centers in the United States. In this cohort, 10 patients with diarrhea caused by mild/moderate C. difficile diagnosed via toxin EIA+ were treated with ibezapolstat 450 mg orally, twice daily for 10 days. All patients were followed for recurrence for 28±2 days. Stool was collected during course of therapy and at follow up. Patient fecal samples were evaluated for C. difficile culture and microbiome changes.
# The primary efficacy outcome measure was clinical cure at EOT defined as resolution of diarrhea in the 24-hour period preceding EOT and maintained for at least 48 hours post EOT. SCC was defined as clinical cure with no recurrence of CDI within 28 (±2) days after EOT.
# An intent-to-treat analysis of patients receiving at least one dose of ibezapolstat was conducted. Descriptive statistics were calculated for efficacy, safety/tolerability, and PK data generated using SAS version 9.4 software (SAS Institute, Inc Cary, NC, USA). Microbiome summary plots and data visualization was prepared using R software version 4.1.1 (R Core Team 2021, Vienna, Austria). (R Core Team (2013). R: A language and environment for statistical computing. R Foundation for Statistical Computing, Vienna, Austria.) Alpha diversity for each sample was assessed with the VeganR package version 2.4-2 using the Shannon Diversity Index and Inverse Simpson Index. Differences in alpha diversity (Shannon Diversity and Inverse Simpson Indexes) and bile acids at baseline compared to during or after therapy were compared using linear regression models. Proportional changes of bacterial taxa over the 10-day dosing interval were calculated using linear regression models for taxa with at least a one percent proportional change during the study time period. A p value <0.05 was considered significant.
# [2] = Phase 2a trial: safety assessments (adverse events); type: in vivo, human
# Procedure: Safety evaluations included AE assessment, physical examination, vital signs, clinical laboratory tests (chemistry, hematology, and urinalysis), and electrocardiography. Safety endpoints for all subjects were recorded including nature, frequency, and severity of AEs. AEs were assessed at each visit beginning from the time of enrollment and classified according to the Medical Dictionary for Regulatory Activities (MedDRA version 15.0). AE severity (mild, moderate, or severe) and causality (unrelated, possibly related, or probably related to the study medication) were assessed by the investigator at each site.
# [3] = Phase 2a trial: plasma and fecal concentrations (PK); type: in vivo, human; conditions: CDI patients
# Procedure: Plasma levels were drawn at 2 and 4 hours after the first daily ibezapolstat administration on days 1, 5, and 10. Fecal samples were collected at baseline and daily during days 1-10 of ibezapolstat receipt. Plasma and fecal concentrations were assayed by AltaSciences (Laval, Quebec, Canada) and PK analyses were performed by Learn and Confirm Inc. (Montreal, Quebec, Canada).
# C. difficile = assay: Phase 2a trial: stool culture for C. difficile on CCFA; type: in vivo, Clostridioides difficile; conditions: CDI patients
# Procedure: Stool samples were cultured for C. difficile growth on a selective cycloserine-cefoxitin fructose agar (CCFA) at 37° C. under anaerobic conditions for 48 hours. (Gonzales-Luna). Isolates were determined to be C. difficile based on growth and morphology and confirmed by PCR for C. difficile toxin and tpi genes. C. difficile was strain typed using a PCR-based ribotyping method as previously described. (Gonzales-Luna A J, Carlson T J, Dotson K M, et al. PCR ribotypes of Clostridioides difficile across Texas from 2011 to 2018 including emergence of ribotype 255. Emerg Microbes Infect 2020; 9(1): 341-7.) Minimum inhibitory concentrations (MICs) were determined for ibezapolstat by broth microdilution in 0.1% sodium taurocholate Brain Heart Infusion (BHI) media. (Begum K, Basseres E, Miranda J, et al. In Vitro Activity of Omadacycline, a New Tetracycline Analog, and Comparators against Clostridioides difficile. Antimicrob Agents Chemother 2020; 64(8).)
# C. difficile infection [4] = conditions: literature (Gonzales-Luna); cited from earlier work
# [5] = ibezapolstat 450 mg orally twice daily 10 days
# [6] = CDI patients receiving ibezapolstat
compound,measurement,setting,value
"O=c1[nH]c(NCc2ccc(Cl)c(Cl)c2)nc2ncn(CCN3CCOCC3)c12 [Ibezapolstat, 2-((3,4-dichlorobenzyl)amino)-7-(2-morpholinoethyl)-1,7-dihydro-6H-purin-6-one]",no recurrences of infection,C. difficile infection [1]; followed 28±2 days,100%
same,clinical cure at day 12,C. difficile infection [1]; [5],100%
same,infection eliminated,C. difficile infection [1]; [5],100%
same,sustained clinical cure at day 38,C. difficile infection [1]; [5],100%
same,number of AEs reported,[2]; 10 CDI patients,Seven
same,serious AEs,[2]; 10 CDI patients,None
same,"adverse event profile, in words","[2]; 10 CDI patients, ibezapolstat 450 mg twice daily 10 days",acceptable adverse event profile
same,Adverse event Headache: Action taken with study medication,[2]; [6],No
same,Adverse event Headache: Frequency,[2]; [6],Intermittent
same,Adverse event Headache: Intensity,[2]; [6],Mild
same,Adverse event Headache: Outcome,[2]; [6],Resolved
same,Adverse event Headache: Relationship to study drug,[2]; [6],Unrelated
same,Adverse event Headache: Serious AE,[2]; [6],No
same,Adverse event Headache: Treatment required,[2]; [6],No
same,Adverse event Intertriginous Candidiasis: Action taken with study medication,[2]; [6],No
same,Adverse event Intertriginous Candidiasis: Frequency,[2]; [6],Continuous
same,Adverse event Intertriginous Candidiasis: Intensity,[2]; [6],Moderate
same,Adverse event Intertriginous Candidiasis: Outcome,[2]; [6],Resolved
same,Adverse event Intertriginous Candidiasis: Relationship to study drug,[2]; [6],Unrelated
same,Adverse event Intertriginous Candidiasis: Serious AE,[2]; [6],No
same,Adverse event Intertriginous Candidiasis: Treatment required,[2]; [6],Yes
same,Adverse event Migraine headache: Action taken with study medication,[2]; [6],No
same,Adverse event Migraine headache: Frequency,[2]; [6],Continuous
same,Adverse event Migraine headache: Intensity,[2]; [6],Severe
same,Adverse event Migraine headache: Outcome,[2]; [6],Resolved
same,Adverse event Migraine headache: Relationship to study drug,[2]; [6],Unrelated
same,Adverse event Migraine headache: Serious AE,[2]; [6],No
same,Adverse event Migraine headache: Treatment required,[2]; [6],Yes
same,Adverse event Nausea: Action taken with study medication,[2]; [6],No
same,Adverse event Nausea: Frequency,[2]; [6],Intermittent
same,Adverse event Nausea: Intensity,[2]; [6],Moderate
same,Adverse event Nausea: Outcome,[2]; [6],Resolved
same,Adverse event Nausea: Relationship to study drug,[2]; [6],Probably
same,Adverse event Nausea: Serious AE,[2]; [6],No
same,Adverse event Nausea: Treatment required,[2]; [6],No
same,Adverse event Vomiting: Action taken with study medication,[2]; [6],No
same,Adverse event Vomiting: Frequency,[2]; [6],Once
same,Adverse event Vomiting: Intensity,[2]; [6],Moderate
same,Adverse event Vomiting: Outcome,[2]; [6],Resolved
same,Adverse event Vomiting: Relationship to study drug,[2]; [6],Probably
same,Adverse event Vomiting: Serious AE,[2]; [6],No
same,Adverse event Vomiting: Treatment required,[2]; [6],Yes
same,patients with AEs,[2]; of the 10 patients,4
same,stool samples with detectable concentration on day 38,[3],Three of 4
same,"plasma concentrations, upper limit",[3]; 450 mg twice daily,≤ 1000 ng/mL
same,"stool concentration, days 8-10 of therapy",[3]; 450 mg twice daily,"> 1,000 μg/g stool"
same,concentration at 2 h,"[3]; human, plasma, oral, 450 mg twice daily, read-out: plasma levels 2-hour post-dose",234 to 299 ng/mL
same,concentration at 4 h,"[3]; human, plasma, oral, 450 mg twice daily, read-out: plasma levels 4-hour postdose",373 to 578 ng/mL
same,concentration at 2 days after EOT,"[3]; human, stool, oral, 450 mg, read-out: stool concentration two days after EOT",535000 ± 748000 ng/g
same,concentration at 38 day,"[3]; human, stool, oral, 450 mg, samples with detectable concentration",136000 ± 161000 ng/g
same,concentration at 3 day of therapy,"[3]; human, stool, oral, 450 mg twice daily",416000 ± 494000 ng/g
same,C. difficile growth from stool samples after baseline,"C. difficile; all sampling days other than baseline, 7-9 samples/day",did not grow C. difficile
same,Eradication of colonic C. difficile,C. difficile; ibezapolstat 450 mg twice daily,complete eradication of colonic C. difficile by day three
"CN[C@H](CC(C)C)C(=O)N[C@H]1C(=O)N[C@@H](CC(N)=O)C(=O)N[C@H]2C(=O)N[C@H]3C(=O)N[C@H](C(=O)N[C@H](C(=O)O)c4cc(O)cc(O)c4-c4cc3ccc4O)[C@H](O)c3ccc(c(Cl)c3)Oc3cc2cc(c3O[C@@H]2O[C@H](CO)[C@@H](O)[C@H](O)[C@H]2O[C@H]2C[C@](C)(N)[C@H](O)[C@H](C)O2)Oc2ccc(cc2Cl)[C@H]1O [Vancomycin, vancomycin]",patients having a recurring CDI after treatment is discontinued,C. difficile infection [4],20-25%
CCc1c(Cl)c(O)c(Cl)c(O)c1C(=O)O[C@H]1[C@H](O)[C@H](OC)[C@H](OC/C2=C\C=C\C[C@H](O)/C(C)=C/[C@H](CC)[C@@H](O[C@@H]3OC(C)(C)[C@@H](OC(=O)C(C)C)[C@H](O)[C@@H]3O)/C(C)=C/C(C)=C/C[C@@H]([C@@H](C)O)OC2=O)O[C@@H]1C [fidaxomicin],CDI recurrence rates lower than other treatments,C. difficile infection [4],approximately 50%
